Reference: patent publication US20080020368A1, “Method and apparatus for exposing cells to different concentrations of analytes or drugs” (priority 2006, published 2008)

Test system: HL60 cells
Test: On-chip TMR study: laser-enhanced TMR fluorescence response of docked cells in tapered microchannel device
Type: cell-based
Settings: Homo sapiens, HL-60, light or radiation study; HL60 cells docked on upper sandbag, on-chip serial dilution of TMR, fast Helium-Neon laser irradiation (~70 ms/ROI) for 3 more minutes; 50% intensity; read-out: EC50 of TMR concentration required to trigger the enhanced fluorescence response
Excerpt: It was the highly compact design of this microdevice that facilitated the comparative study between large amounts of cells on two sandbag components. […] However, only a region of interest (ROI) on the upper sandbag was subjected to fast laser irradiation (˜70 ms/ROI of Helium-Neon laser) for 3 more minutes. A confocal image of both sandbags after the fast irradiation was developed.
Furthermore, despite the large ROI coverage over the upper sandbag, the enhanced response was evidenced for the cells incubated at higher TMR concentration near the sandbag rear. Therefore, the conclusion is that the enhanced response was at least related to 1) concentration of TMR and 2) the amount of laser irradiation.
Referring to FIG. 30, photomicrographs are shown one on top of the other, with the top photomicrograph showing cells docked on both sandbags but only those encircled by the black dotted framework are subjected to laser irradiation. […] The purpose of these photomicrographs is to show the power of the microchip to perform rapid analysis and retrieve effective concentration of a photodynamic therapy drug candidate that is sensitive to light irradiation.
The response profiles of cells docked on the upper and lower sandbags of FIG. 30 are plotted in FIG. 31. […] Note further that there is an average peak in intensity at a 3.73 μM at 50% intensity. […]

## CN(C)c1ccc2c(-c3ccc(CCl)cc3)c3ccc(=[N+](C)C)cc-3oc2c1 [TMR, Tetramethylrosamine]
  EC50: 3.73 µM
